Assay results published in PubChem BioAssay AID624491 (Broad Institute, 2012).

What follows are molecules tested on D54 ERlucT glycosylation luciferase reporter, luminescence, 24 h (assay: blockers of NLG process in reporter cells – D54 ERlucT cells, luminescence, cherry-picks, dose response (AID 624491);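 further: signal gain reflects blocked N-linked glycosylation of a luciferase reporter; actives raise luciferase signal so AC26 marks activators of the reporter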).

SMILES	AC26 [nM]
COc1cc(-c2cc3nc(NCCc4ccncc4)ccn3n2)cc(OC)c1OC	798
O=C(CCl)N1c2ccccc2Sc2c1ccc1ccccc21	257
O=c1c2c3c(sc2ncn1/N=C/c1ccc([N+](=O)[O-])o1)CCCC3	447
CC(C)n1cc(NC(=O)c2cc(-c3ccccc3)on2)cn1	1230
CCOC(=O)N/N=C/c1ccc(N(CC)CC)cc1O	2990
C#CC[N+](C)(C)CCCCCCCCCCCC	7360
COc1ccc(C(=O)c2cc([N+](=O)[O-])ccc2N2CCN(C)CC2)cc1	2330
Cc1onc(C(=O)Nc2cccc(C(F)(F)F)c2)c1[N+](=O)[O-]	2720
COc1ccc(C(=O)c2ccc(OC)c(N)c2)cc1N	143
COC(=O)c1cn(C(=O)/C=C/c2ccc(OC)c(OC)c2)c2ccccc12	1640
COc1ccc2nc(SCC(=O)NC3CCCC3)c(C)cc2c1	10200
C=CCn1c(SCc2c(C)noc2C)nc2sc(C)c(C)c2c1=O	891
COc1ccc(/C=C2\SC(=O)N(CCNC(=O)C3=COCCO3)C2=O)cc1	658
O=C(CN1C(=O)NC(c2ccccc2)(c2ccccc2)C1=O)Nc1ccc(N2CCOCC2)cc1	4200
COC(=O)c1ccc(/C=C/C(=O)c2ccc(OC)c(OC)c2)cc1	4100
CNC(=O)c1cccn(Cc2cc(C(F)(F)F)cc(C(F)(F)F)c2)c1=O	16000
CCOC(=O)N1CCC(NC(=O)c2ccc3c(c2)N=C(C)c2c(C)ccc(C)c2S3)CC1	441
O=c1cc(-c2ccccc2)[nH]c2ccccc12	433
COc1cccc(C(=O)Nc2sc3c(c2C#N)CCN(C(C)=O)C3)c1	9.19

SMILES	AC26 [nM]
COc1ccccc1N1CC(O)=C(c2nc3ccccc3c(=O)[nH]2)C1=N	1320
O=C(CN1C(=O)/C(=C\c2ccc(F)cc2)Oc2ccccc21)N1CCN(c2ccccn2)CC1	4740
Cc1ccc(O)c(C(=O)C=Cc2ccccc2)c1	1210
CO/N=C\CC(=O)Nc1ccc(Cl)cc1Cl	1070
O=C(NCCCN1CCOCC1)c1cc(-c2ccc(F)cc2)on1	14000
COc1ccc2oc(-c3ccccc3[N+](=O)[O-])cc(=O)c2c1	568
C=C(C)Cn1c2ccc(NC(=O)CCc3cccc(Cl)c3)cc2c(=O)n1C	7490
Cc1ccnc(NC(=O)CCCOc2cc(=O)n(C)c3ccccc23)c1	14900
CC(=O)Nc1ccc(CNc2ncnc3ccc(-c4c(C)noc4C)cc23)cc1	290
COc1cccc(N2CCN(C(=O)c3[nH]c(C)c(C(C)=O)c3C)CC2)c1	1680
Cc1cccn2c(=O)c3cc(C(=O)NC4CCCCC4)n(C)c3nc12	10200
COc1cc(OC)cc(C(=O)N/N=C/c2ccc(OC)c(COc3ccc(F)cc3)c2)c1	2250
COc1ccc(C2(CNC(=O)c3cc(OC)c(OC)c(OC)c3)CCCC2)cc1OC	3140
Cc1cccc2c(C(=O)N3CCN(c4ccccc4)CC3)cc(-c3ccncc3)nc12	198
Cc1ccc(-c2cnc(C3CC3)o2)cc1S(=O)(=O)Nc1ccccc1	9070
O=C1NC(=O)N(Cc2ccccc2)C(=O)/C1=C/C=C/c1ccco1	1080
Cc1ccc(S(=O)(=O)C(NC(=O)c2ccccc2)=C(Cl)Cl)cc1	4090
CC(C)/C=C1\CC/C(=C\c2cccnc2)C1=O	4840
CC1(C(=O)NCc2ccco2)Cc2c(-c3cccc(C(N)=O)c3)ccnc2O1 (stereo unspecified)	1450

SMILES	AC26 [nM]
COc1cccc(-c2cnc3c(NC(C)=O)cc(-c4cc(F)ccc4OC)cn23)c1	1600
CC(C)(C)c1ccc(OCc2ccc(C(=O)N3CCOCC3)o2)cc1	2160
O=C(/C=C/c1ccc([N+](=O)[O-])cc1)/C=C/c1ccco1	1140
COc1cc2c(cc1OC)C(c1cccs1)N(C(=S)NC(C)C)CC2 (stereo unspecified)	252
CCN(CC)c1ccc(/C=N\NC(=O)c2cccc3cc[nH]c23)cc1	1860
COc1ccc(/C=C2\CC/C(=C\c3ccc(OC)c(OC)c3)C2=O)cc1OC	3790
CCN1Cc2c(/C=C/c3ccccc3)nc3ccc(OC)cc3c2N(c2cccc(Cl)c2)C1	14300
Oc1cccc(Nc2c3ccccc3nc3ccccc23)c1	1440
O=C1/C(=C\c2ccc(Cl)cc2)CCC1CNc1ccc(Cl)cc1 (stereo unspecified)	5490
COc1ccc(CNC(=O)c2cccc3c(-c4cnn(C)c4)coc23)cc1OC	3960
O=c1cc(-c2ccccc2)[nH]c2cc(F)ccc12	327
Cc1c2cnccc2c(C)c2c1oc1ccccc12	2820
CCOC(=O)[C@H]1[C@H]2COc3ccc(Br)cc3[C@@H]2N2C(=O)c3cc(OC)c(OC)cc3NC(=O)[C@@]12C	4040
NNC(=O)c1nc(-c2ccccc2)cc(-c2ccccc2)n1	2320
CCCCC[C@H](O)/C=C/[C@@H]1[C@@H](C/C=C\CCCC(=O)OC)[C@@H](O)C[C@H]1O	10.5
NC(=O)CC(NC(=O)Cc1ccc(Br)cc1)c1ccc(NC2CC3CCC2C3)c([N+](=O)[O-])c1 (stereo unspecified)	32.6
CCN1CCN(c2ccc([N+](=O)[O-])cc2C(=O)c2ccc(Cl)cc2)CC1	11200
COc1cc(NC(=O)c2cc(-c3ccccc3)nc3c2cnn3C(C)C)cc(OC)c1OC	1150
